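All cell lines were grown in 96-well plates and treated with compound for 48 hours. TGI: concentration producing complete growth inhibition.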
What was measured:
Experiment in all cases: NCI-60 cell line screen, 48 h
SR leukemia = tested on: SR leukemia
IGROV1 ovarian = tested on: IGROV1 ovarian
EKVX NSCLC = tested on: EKVX NSCLC
CCRF-CEM leukemia = tested on: CCRF-CEM leukemia
KM12 colon = tested on: KM12 colon
SN12C renal = tested on: SN12C renal
DMS 114 small cell lung = tested on: DMS 114 small cell lung
U251 CNS = tested on: U251 CNS
MOLT-4 leukemia = tested on: MOLT-4 leukemia
SNB-19 CNS = tested on: SNB-19 CNS
HT29 colon = tested on: HT29 colon
SF-295 CNS = tested on: SF-295 CNS
OVCAR-4 ovarian = tested on: OVCAR-4 ovarian
LOX IMVI melanoma = tested on: LOX IMVI melanoma
NCI-H226 lung = tested on: NCI-H226 lung
COLO 205 colon = tested on: COLO 205 colon
NCI-H522 lung = tested on: NCI-H522 lung
HOP-18 NSCLC = tested on: HOP-18 NSCLC
SF-268 CNS = tested on: SF-268 CNS
UO-31 renal = tested on: UO-31 renal
DLD-1 colon = tested on: DLD-1 colon
TK-10 renal = tested on: TK-10 renal
NCI-H23 lung = tested on: NCI-H23 lung
OVCAR-8 ovarian = tested on: OVCAR-8 ovarian
M19-MEL melanoma = tested on: M19-MEL melanoma
NCI-H460 lung = tested on: NCI-H460 lung
HOP-92 NSCLC = tested on: HOP-92 NSCLC
UACC-257 melanoma = tested on: UACC-257 melanoma
HCT-116 colon = tested on: HCT-116 colon
SNB-78 CNS = tested on: SNB-78 CNS
HCT-15 colon = tested on: HCT-15 colon
SK-MEL-28 melanoma = tested on: SK-MEL-28 melanoma
UACC-62 melanoma = tested on: UACC-62 melanoma
KM20L2 colon = tested on: KM20L2 colon
SNB-75 CNS = tested on: SNB-75 CNS
CAKI-1 renal = tested on: CAKI-1 renal
DMS 273 small cell lung = tested on: DMS 273 small cell lung
ACHN renal = tested on: ACHN renal
XF 498 CNS = tested on: XF 498 CNS
K-562 leukemia = tested on: K-562 leukemia
M14 melanoma = tested on: M14 melanoma
SK-MEL-2 melanoma = tested on: SK-MEL-2 melanoma
SK-OV-3 ovarian = tested on: SK-OV-3 ovarian
A498 renal = tested on: A498 renal
SF-539 CNS = tested on: SF-539 CNS
SK-MEL-5 melanoma = tested on: SK-MEL-5 melanoma
MALME-3M melanoma = tested on: MALME-3M melanoma
LXFL 529 NSCLC = tested on: LXFL 529 NSCLC
786-0 renal = tested on: 786-0 renal
A549 NSCLC = tested on: A549 NSCLC
RPMI-8226 leukemia = tested on: RPMI-8226 leukemia
SW-620 colon = tested on: SW-620 colon
HOP-62 NSCLC = tested on: HOP-62 NSCLC
OVCAR-5 ovarian = tested on: OVCAR-5 ovarian
HCC-2998 colon = tested on: HCC-2998 colon
OVCAR-3 ovarian = tested on: OVCAR-3 ovarian
HL-60(TB) leukemia = tested on: HL-60(TB) leukemia
RXF-631 renal = tested on: RXF-631 renal
RXF 393 renal = tested on: RXF 393 renal
MDA-N = tested on: MDA-N
MDA-MB-435 = tested on: MDA-MB-435
MCF7 breast = tested on: MCF7 breast
PC-3 prostate = tested on: PC-3 prostate
BT-549 breast = tested on: BT-549 breast
DU-145 prostate = tested on: DU-145 prostate
HS 578T breast = tested on: HS 578T breast
MDA-MB-231 breast = tested on: MDA-MB-231 breast
NCI/ADR-RES ovarian = tested on: NCI/ADR-RES ovarian
T-47D breast = tested on: T-47D breast

CC(C)N(C(=O)C12C3C4C5C3C1(C#N)C5C42)C(C)C (stereo not given)
TGI (SR leukemia): > 100 µM | TGI (IGROV1 ovarian): > 100 µM | TGI (EKVX NSCLC): > 100 µM | TGI (CCRF-CEM leukemia): > 100 µM | TGI (KM12 colon): > 100 µM | TGI (SN12C renal): > 100 µM | TGI (DMS 114 small cell lung): > 100 µM | TGI (U251 CNS): > 100 µM | TGI (MOLT-4 leukemia): > 100 µM | TGI (SNB-19 CNS): > 100 µM | TGI (HT29 colon): > 100 µM | TGI (SF-295 CNS): > 100 µM | TGI (OVCAR-4 ovarian): > 100 µM | TGI (LOX IMVI melanoma): > 100 µM | TGI (NCI-H226 lung): > 100 µM | TGI (COLO 205 colon): > 100 µM | TGI (NCI-H522 lung): > 100 µM | TGI (HOP-18 NSCLC): > 100 µM | TGI (SF-268 CNS): > 100 µM | TGI (UO-31 renal): > 100 µM | TGI (DLD-1 colon): > 100 µM | TGI (TK-10 renal): > 100 µM | TGI (NCI-H23 lung): > 100 µM | TGI (OVCAR-8 ovarian): > 100 µM | TGI (M19-MEL melanoma): > 100 µM | TGI (NCI-H460 lung): > 100 µM | TGI (HOP-92 NSCLC): > 100 µM | TGI (UACC-257 melanoma): > 100 µM | TGI (HCT-116 colon): > 100 µM | TGI (SNB-78 CNS): > 100 µM | TGI (HCT-15 colon): > 100 µM | TGI (SK-MEL-28 melanoma): > 100 µM | TGI (UACC-62 melanoma): > 100 µM | TGI (KM20L2 colon): > 100 µM | TGI (SNB-75 CNS): > 100 µM | TGI (CAKI-1 renal): > 100 µM | TGI (DMS 273 small cell lung): > 100 µM | TGI (ACHN renal): > 100 µM | TGI (XF 498 CNS): > 100 µM | TGI (K-562 leukemia): > 100 µM | TGI (M14 melanoma): > 100 µM | TGI (SK-MEL-2 melanoma): > 100 µM | TGI (SK-OV-3 ovarian): > 100 µM | TGI (A498 renal): > 100 µM | TGI (SF-539 CNS): > 100 µM | TGI (SK-MEL-5 melanoma): > 100 µM | TGI (MALME-3M melanoma): > 100 µM | TGI (LXFL 529 NSCLC): > 100 µM | TGI (786-0 renal): > 100 µM | TGI (A549 NSCLC): > 100 µM | TGI (RPMI-8226 leukemia): > 100 µM | TGI (SW-620 colon): > 100 µM | TGI (HOP-62 NSCLC): > 100 µM | TGI (OVCAR-5 ovarian): > 100 µM | TGI (HCC-2998 colon): > 100 µM | TGI (OVCAR-3 ovarian): > 100 µM | TGI (HL-60(TB) leukemia): > 100 µM

CCOc1ccc(N=Nc2c(-c3ccccc3)nn(C(=O)CC(=O)Nc3cccc(C)c3)c2-c2ccccc2)cc1
TGI (SR leukemia): > 100 µM | TGI (IGROV1 ovarian): > 100 µM | TGI (EKVX NSCLC): > 100 µM | TGI (CCRF-CEM leukemia): > 100 µM | TGI (KM12 colon): > 100 µM | TGI (SN12C renal): > 100 µM | TGI (DMS 114 small cell lung): > 100 µM | TGI (RXF-631 renal): > 100 µM | TGI (U251 CNS): > 100 µM | TGI (MOLT-4 leukemia): > 100 µM | TGI (SNB-19 CNS): > 100 µM | TGI (HT29 colon): > 100 µM | TGI (SF-295 CNS): > 100 µM | TGI (OVCAR-4 ovarian): > 100 µM | TGI (LOX IMVI melanoma): > 100 µM | TGI (NCI-H226 lung): > 100 µM | TGI (COLO 205 colon): > 100 µM | TGI (NCI-H522 lung): > 100 µM | TGI (HOP-18 NSCLC): > 100 µM | TGI (SF-268 CNS): > 100 µM | TGI (UO-31 renal): > 100 µM | TGI (DLD-1 colon): > 100 µM | TGI (TK-10 renal): > 100 µM | TGI (NCI-H23 lung): > 100 µM | TGI (OVCAR-8 ovarian): > 100 µM | TGI (NCI-H460 lung): > 100 µM | TGI (HOP-92 NSCLC): > 100 µM | TGI (UACC-257 melanoma): > 100 µM | TGI (HCT-116 colon): > 100 µM | TGI (RXF 393 renal): > 100 µM | TGI (SNB-78 CNS): > 100 µM | TGI (SK-MEL-28 melanoma): > 100 µM | TGI (UACC-62 melanoma): > 100 µM | TGI (KM20L2 colon): > 100 µM | TGI (SNB-75 CNS): > 100 µM | TGI (CAKI-1 renal): > 100 µM | TGI (DMS 273 small cell lung): > 100 µM | TGI (ACHN renal): > 100 µM | TGI (XF 498 CNS): > 100 µM | TGI (K-562 leukemia): > 100 µM | TGI (M14 melanoma): > 100 µM | TGI (SK-MEL-2 melanoma): > 100 µM | TGI (SK-OV-3 ovarian): > 100 µM | TGI (SF-539 CNS): > 100 µM | TGI (SK-MEL-5 melanoma): > 100 µM | TGI (MALME-3M melanoma): > 100 µM | TGI (LXFL 529 NSCLC): > 100 µM | TGI (786-0 renal): > 100 µM | TGI (A549 NSCLC): > 100 µM | TGI (RPMI-8226 leukemia): > 100 µM | TGI (SW-620 colon): > 100 µM | TGI (HOP-62 NSCLC): > 100 µM | TGI (OVCAR-5 ovarian): > 100 µM | TGI (HCC-2998 colon): > 100 µM | TGI (OVCAR-3 ovarian): > 100 µM | TGI (HL-60(TB) leukemia): > 100 µM

C=C(CN(C)C)C(=O)c1ccc(OC)cc1
TGI (SR leukemia): 5.27 µM | TGI (IGROV1 ovarian): 22 µM | TGI (EKVX NSCLC): 44.8 µM | TGI (MDA-N): 22.5 µM | TGI (CCRF-CEM leukemia): 1.08 µM | TGI (KM12 colon): 39.4 µM | TGI (SN12C renal): 7.1 µM | TGI (MDA-MB-435): 26.4 µM | TGI (DMS 114 small cell lung): 8.38 µM | TGI (U251 CNS): 28.8 µM | TGI (MOLT-4 leukemia): 2.06 µM | TGI (SNB-19 CNS): 40.3 µM | TGI (HT29 colon): 25.1 µM | TGI (SF-295 CNS): 45.7 µM | TGI (OVCAR-4 ovarian): 22.1 µM | TGI (LOX IMVI melanoma): 25.4 µM | TGI (NCI-H226 lung): 29.4 µM | TGI (COLO 205 colon): 1.39 µM | TGI (MCF7 breast): 21.4 µM | TGI (HOP-18 NSCLC): 9.35 µM | TGI (SF-268 CNS): 50.5 µM | TGI (PC-3 prostate): 28.5 µM | TGI (UO-31 renal): 7.92 µM | TGI (DLD-1 colon): 2.03 µM | TGI (TK-10 renal): 7.88 µM | TGI (NCI-H23 lung): 22.2 µM | TGI (OVCAR-8 ovarian): 3.17 µM | TGI (M19-MEL melanoma): 7.52 µM | TGI (NCI-H460 lung): 44.6 µM | TGI (HOP-92 NSCLC): 3.28 µM | TGI (UACC-257 melanoma): 11.6 µM | TGI (HCT-116 colon): 12.8 µM | TGI (RXF 393 renal): 24.9 µM | TGI (SNB-78 CNS): 7.83 µM | TGI (BT-549 breast): 18.1 µM | TGI (DU-145 prostate): 10.7 µM | TGI (HCT-15 colon): 5.96 µM | TGI (HS 578T breast): > 87 µM | TGI (SK-MEL-28 melanoma): 8.63 µM | TGI (UACC-62 melanoma): 20.4 µM | TGI (KM20L2 colon): 13.7 µM | TGI (SNB-75 CNS): 39.9 µM | TGI (CAKI-1 renal): 5.18 µM | TGI (DMS 273 small cell lung): 11.6 µM | TGI (ACHN renal): 3.01 µM | TGI (XF 498 CNS): 5.1 µM | TGI (MDA-MB-231 breast): 17.3 µM | TGI (K-562 leukemia): 4.39 µM | TGI (M14 melanoma): 5.66 µM | TGI (SK-MEL-2 melanoma): 13.2 µM | TGI (NCI/ADR-RES ovarian): 34.2 µM | TGI (SK-OV-3 ovarian): 41.3 µM | TGI (A498 renal): 25.6 µM | TGI (SF-539 CNS): 9.56 µM | TGI (SK-MEL-5 melanoma): 18 µM | TGI (T-47D breast): 4.62 µM | TGI (MALME-3M melanoma): 3.5 µM | TGI (LXFL 529 NSCLC): 3.31 µM | TGI (786-0 renal): 5.78 µM | TGI (A549 NSCLC): 42.8 µM | TGI (RPMI-8226 leukemia): 9.19 µM | TGI (SW-620 colon): 5.08 µM | TGI (HOP-62 NSCLC): 51.9 µM | TGI (OVCAR-5 ovarian): 29.8 µM | TGI (HCC-2998 colon): 22.4 µM | TGI (OVCAR-3 ovarian): 10.4 µM | TGI (HL-60(TB) leukemia): 0.631 µM

From PubChem BioAssay (NCI)
